Laboratory results taken from patent EP0597838B1, “VACCINE COMPOSITIONS” (NORTH AMERICAN VACCINE, INC., priority 1990, dated 1991).
Counter-ions that a name gives are not always drawn.

Assays:
[1] = test system: hepatitis B surface antigen; assay: Antibody response to hepatitis B surface antigen with octadecyl amino acid immunoadjuvants, radioimmunoassay of sera; assay type: in vivo, BALB/c mice; conditions: 50 ng HBsAg i.m. day 1, boost 35 ng day 21, 100 µg octadecyl amino acid
Procedure: (§1) BALB/c mice were immunized with 50 ng of hepatitis B surface antigen in the presence of adjuvant for the non-control mice and in the absence of adjuvant for the control mice. The hepatitis B surface antigen was obtained from 3T3 cells transfected with the gene for the surface antigen. 100 µg of octadecyl amino acid was complexed with the polypeptide as described in Example 2. This mixture, in a total volume of 0.1 ml, was injected on day 1 using an intramuscular route, and the mice were bled on days 7, 14, 21, 28, 35, 42 and 61. The mice were boosted with 35 ng of the polypeptide on day 21.
(§2) The antibody concentration in the sera was determined by radioimmunoassay. The antibody concentration was estimated by comparison with a standard curve obtained using a monoclonal antibody.

[2] = test system: hepatitis B surface antigen; assay: Antibody response to hepatitis B surface antigen as a function of octadecyl tyrosine dose, radioimmunoassay of sera; assay type: in vivo, BALB/c mice; conditions: 80 ng HBsAg, boost 50 ng, pre-bleed value 11.5
Procedure: as §1, §2
The immunizations were carried out in the presence of adjuvant for the non-control mice and in the absence of adjuvant for the control mice.

[3] = test system: HIV-1 polypeptide, residues 503-535; assay: Antibody response to HIV-1 polypeptide 503-535 coupled to KLH in mice, radioimmunoassay of sera; assay type: in vivo, BALB/c mice; conditions: 100 µg polypeptide-KLH on day 1 and day 21
Procedure: 1) HIV Peptide Sequence The peptide sequence of the HIV was as follows. Product: BC-101 503- H-[…] 535 M.W. 3585.14 (Back-bone) 2) Experiments in mice BALB/c mice were immunized with 100 µg of chemically synthesized polypeptide, corresponding to the amino acid sequence of residues 503-535 of HIV-1, coupled to Keyhole Limpet Hemocyanin (KLH). Octadecyl tyrosine hydro-chloride, 10 µg-100 µg, was complexed with the polypeptide as described in Example 2. This mixture, in a total volume of 0.1 ml, was injected on day 1, and again on day 21. The mice were bled on days 7, 14, 21, 28 and 35. The antibody concentration in the sera was determined by radioimmunoassay. The antibody concentration was estimated by comparison with a standard curve obtained using a polyclonal antibody.

[4] = test system: hepatitis B surface antigen; assay: Isotype of the anti-hepatitis B surface antigen antibody response, radioimmunoassay with tritium labelled anti-mouse isotype antibody; assay type: in vivo, mice; conditions: for IgE, radioactivity of bound isotype antibody / IgG1, radioactivity of bound isotype antibody / IgG2a, radioactivity of bound isotype antibody / IgG2b, radioactivity of bound isotype antibody / IgG3, radioactivity of bound isotype antibody / IgM, radioactivity of bound isotype antibody: immunization on day 1 and 21, 50 µg of octadecyl tyrosine
Procedure: The protocol was as described in Example 5, Section 2 (mice) except that 50 µg of octadecyl tyrosine was used for both the primary and secondary (day 21) immunizations. The isotype of the antibody response was determined by radioimmunoassay. Use was made of tritium labelled anti-mouse isotype antibody. Titration was undertaken by incubation of samples on plates coated with immunoaffinity purified hepatitis B surface antigen.

[5] = test system: hepatitis B surface antigen; assay: Antibody response to hepatitis B surface antigen as a function of octadecyl tyrosine dose, radioimmunoassay of sera; assay type: in vivo, BALB/c mice; conditions: day 21, 80 ng HBsAg, boost 50 ng, pre-bleed value 11.5
[6] = C.L. Penney et al, Vaccine 4, 1986; cited from earlier work

## CCCCCCCCCCCCCCCCCCOC(=O)C(N)Cc1ccc(O)cc1 (centres unmarked) [Octadecyl Tyrosine, octadecyl tyrosine hydrochloride]
[1]; day 7
  Anti-HBsAg antibody concentration: 68 ng/mL
[1]; day 14
  Anti-HBsAg antibody concentration: 91 ng/mL
[1]; day 21
  Anti-HBsAg antibody concentration: 58 ng/mL
[1]; day 28
  Anti-HBsAg antibody concentration: 355 ng/mL
[1]; day 35
  Anti-HBsAg antibody concentration: 833 ng/mL
[1]; day 61
  Anti-HBsAg antibody concentration: 752 ng/mL
[2]; 10 µg adjuvant, day 7
  Antibody response to hepatitis B surface antigen: 611 CPM
[2]; 10 µg adjuvant, day 14
  Antibody response to hepatitis B surface antigen: 2314 CPM
[2]; 10 µg adjuvant, day 28
  Antibody response to hepatitis B surface antigen: 8403 CPM
[2]; 10 µg adjuvant, day 35
  Antibody response to hepatitis B surface antigen: 10005 CPM
[2]; 50 µg adjuvant, day 7
  Antibody response to hepatitis B surface antigen: 2064 CPM
[2]; 50 µg adjuvant, day 14
  Antibody response to hepatitis B surface antigen: 846 CPM
[2]; 50 µg adjuvant, day 28
  Antibody response to hepatitis B surface antigen: 18804 CPM
[2]; 50 µg adjuvant, day 35
  Antibody response to hepatitis B surface antigen: 20616 CPM
[2]; 100 µg adjuvant, day 7
  Antibody response to hepatitis B surface antigen: 1107 CPM
[2]; 100 µg adjuvant, day 14
  Antibody response to hepatitis B surface antigen: 537 CPM
[2]; 100 µg adjuvant, day 28
  Antibody response to hepatitis B surface antigen: 19679 CPM
[2]; 100 µg adjuvant, day 35
  Antibody response to hepatitis B surface antigen: 13427 CPM
[3]; 10 µg adjuvant, day 7
  Anti-peptide antibody concentration: 1.61 µg/mL
[3]; 10 µg adjuvant, day 14
  Anti-peptide antibody concentration: 3.15 µg/mL
[3]; 10 µg adjuvant, day 21
  Anti-peptide antibody concentration: 1.49 µg/mL
[3]; 10 µg adjuvant, day 28
  Anti-peptide antibody concentration: 85.9 µg/mL
[3]; 10 µg adjuvant, day 35
  Anti-peptide antibody concentration: 131.9 µg/mL
[3]; 50 µg adjuvant, day 7
  Anti-peptide antibody concentration: 1.18 µg/mL
[3]; 50 µg adjuvant, day 14
  Anti-peptide antibody concentration: 0.75 µg/mL
[3]; 50 µg adjuvant, day 21
  Anti-peptide antibody concentration: 2.99 µg/mL
[3]; 50 µg adjuvant, day 28
  Anti-peptide antibody concentration: 54.2 µg/mL
[3]; 50 µg adjuvant, day 35
  Anti-peptide antibody concentration: 86.2 µg/mL
[3]; 100 µg adjuvant, day 7
  Anti-peptide antibody concentration: 0.87 µg/mL
[3]; 100 µg adjuvant, day 14
  Anti-peptide antibody concentration: 1.65 µg/mL
[3]; 100 µg adjuvant, day 21
  Anti-peptide antibody concentration: 2.04 µg/mL
[3]; 100 µg adjuvant, day 28
  Anti-peptide antibody concentration: 155.3 µg/mL
[3]; 100 µg adjuvant, day 35
  Anti-peptide antibody concentration: 138.0 µg/mL
[4]; day of bleed 14
  IgE, radioactivity of bound isotype antibody: 33±10 cpm
  IgG1, radioactivity of bound isotype antibody: 568±32 cpm
  IgG2a, radioactivity of bound isotype antibody: 483±44 cpm
  IgG2b, radioactivity of bound isotype antibody: 290±31 cpm
  IgG3, radioactivity of bound isotype antibody: 144±19 cpm
  IgM, radioactivity of bound isotype antibody: 347±37 cpm
[4]; day of bleed 35
  IgE, radioactivity of bound isotype antibody: 55±33 cpm
  IgG1, radioactivity of bound isotype antibody: 8030±155 cpm
  IgG2a, radioactivity of bound isotype antibody: 12331±336 cpm
  IgG2b, radioactivity of bound isotype antibody: 4710±115 cpm
  IgG3, radioactivity of bound isotype antibody: 333±17 cpm
  IgM, radioactivity of bound isotype antibody: 826±8 cpm
[4]; day of bleed 42
  IgE, radioactivity of bound isotype antibody: 29±12 cpm
  IgG1, radioactivity of bound isotype antibody: 6176±496 cpm
  IgG2a, radioactivity of bound isotype antibody: 2271±215 cpm
  IgG2b, radioactivity of bound isotype antibody: 1109±77 cpm
  IgG3, radioactivity of bound isotype antibody: 165±24 cpm
  IgM, radioactivity of bound isotype antibody: 545±87 cpm
[4]; in words, compared to the control without adjuvant
  levels of IgE antibodies: no significant increase
[5]; 10 µg adjuvant
  Antibody response to hepatitis B surface antigen: 342 CPM
[5]; 50 µg adjuvant
  Antibody response to hepatitis B surface antigen: 4000 CPM
[5]; 100 µg adjuvant
  Antibody response to hepatitis B surface antigen: 1279 CPM
[6]
  toxicity in animals: non-toxic
